The values below are quoted from earlier work in US12569571B2, “Salt responsive nanogels and nanoparticles” (HOWARD UNIVERSITY, priority 2016, dated 2026).

For this data set the following is noted: studies have shown.

As for `CNC` [dimethylamine], the “pKa (apparent pKa for PEI)” value is given as “about 10”.
